{
  "source": "patent US20080227809A1",
  "about": "“Arylalkylamine Vanadium (V) Salts for the Treatment and/or Prevention of Diabetes Mellitus” (GENMEDICA THERAPEUTICS SL, priority 2004, published 2008)",
  "key": {"[1]": {"tested_on": "db/db mice", "assay": "chronic treatment of obese diabetic db/db mice, glycemia", "format": "in vivo, mouse", "experimental": "(§1) Chronic in vivo efficacy of B6V10 was evaluated in streptozotocin-induced diabetic rats and in db/db mice. Streptozotocin-induced (45 mg/kg) diabetic rats were subcutaneously treated with hexaquis(benzylammonium) decavanadate (2.5 μmol/kg) (B6V10, solid squares, FIG. 8A) or with decavanadate (2.5 μmol/kg) (V10, open circles, FIG. 8A) delivered subcutaneously by osmotic minipumps implanted in the dorsal region. Diabetic rats were also sham-operated (untreated, solid diamonds, FIG. 8A). […] These experiments were repeated using an oral administration protocol. Streptozotocin-induced (45 mg/kg) diabetic rats were orally treated with hexaquis(benzylammonium) decavanadate (5 μmol/kg from day 0 to day 7 and 10 μmol/kg/day from day 7 to day 17) (B6V10, solid squares, FIG. 8B) or received decavanadate (10 μmol/kg) (V10, open circles, FIG. 8B). Nondiabetic rats were also untreated (solid triangles, FIG. 8B)."}, "[2]": {"tested_on": "high-fat fed mice", "assay": "glucose tolerance and plasma insulin in high-fat fed mice", "format": "in vivo, mouse", "experimental": "Insulin and glucose responses during the glucose tolerance test were calculated as the incremental plasma values integrated over a period of 120 min after injection of glucose. Areas under curves of insulin and glucose responses were calculated using the Graph Prism program (SOURCE?). Data distribution was analyzed by the Kolmogorov-Smirnov test. Data were presented as mean ±SEM and unpaired Student's t test was used to compare two groups. When experimental series involved more than two groups, statistical analysis was done by one-way or two-way ANOVA and further post-hoc (Dunnett, Tukey or Bonferroni) t tests. Statistical analysis was performed with SPSS 11.0 or GraphPad Prism 4 programs."}, "[3]": {"conditions": "in vivo"}, "[4]": {"tested_on": "insulin receptor", "assay": "tyrosine phosphorylation of insulin receptor in isolated rat adipocytes", "format": "cell-based", "conditions": "25 μM", "experimental": "(§2) Isolated fat cells were disrupted for total membrane preparation by hypo-osmotic lysis in a 20 mM HES buffer and an antiprotease and antiphosphatase cocktail as reported by Abella et al. (2003, Diabetes 52: 1004-1013). Protein concentrations were determined by the Bradford method (Bradford, 1976, Anal. Biochem. 72: 248-254) with gamma-globulin as protein concentration standard. Immunoprecipitation and immunoblot assays were performed as previously described by Abella et al. (2004, Id.) with the use of a monoclonal antiphosphotyrosine antibody for the immunoprecipitation and an anti-insulin receptor antibody for immunobloting, respectively. SDS-polyacrylamide gel electrophoresis was performed on membrane proteins following conventional procedures. Proteins were transferred to Immobilon and immunoblotting was performed as reported by Castello et al. (1994, J. Biol. Chem. 269: 5905-5912).\nThe mechanism of action of B6V10 was investigated in isolated rat adipocytes. Adipose cells from Wistar rats were incubated for different times in the presence of 25 μM hexaquis(benzylammonium) decavanadate (B6V10). […] Subsequently, 2-deoxyglucose uptake (results shown in FIG. 7A), tyrosine phosphorylation of insulin receptor (FIG. 7B), phospho-Thr^308-protein kinase B (FIG. 7C) and phospho-Ser^473-protein kinase B (FIG. 7D) was measured. […]"}, "[5]": {"tested_on": "streptozotocin-induced diabetic rats", "assay": "chronic subcutaneous (osmotic minipump) treatment, glycemia of streptozotocin (45 mg/kg) diabetic rats", "format": "in vivo, rat", "conditions": "for effect on glycemia: 2.5 μmol/kg/day subcutaneous by osmotic minipumps, about two weeks", "experimental": "Insulin concentrations were determined before and after treatment.\nThe effect of chronic administration of hexaquis(benzylammonium) decavanadate on glycemia from diabetic rats was determined. Thus, diabetes was induced in rats by intravenous administration of streptozotocin, which destroys the β-pancreatic cells that produce insulin.\nas §1"}, "[6]": {"tested_on": "streptozotocin-induced diabetic rats", "assay": "chronic oral treatment, glycemia of streptozotocin (45 mg/kg) diabetic rats", "format": "in vivo, rat", "experimental": "The effect of the oral administration of hexaquis(benzylammonium) decavanadate on glycemia from diabetic rats was also studied. Diabetes was induced in rats by intravenous administration of streptozotocin, and subsequently, a hexaquis(benzylammonium) decavanadate or sodium decavanadate unique dose was administered to the rats. […] After seven days of treatment, the dose was increased at 10 μmol/kg/day which was maintained for an additional ten days. […] Thus, glycemia in sodium decavanadate treated rats was approximately 450 mg/dl and glycemia of hexaquis(benzylammonium) decavanadate treated rats was approximately 250 mg/dl.\nas §1"}, "[7]": {"tested_on": "adipocytes from treated diabetic rats", "assay": "glucose transport in adipocytes isolated from chronically treated diabetic rats", "format": "in vivo, rat", "conditions": "fourteen days of treatment"}, "[8]": {"tested_on": "diabetic rats", "assay": "plasma lipids of diabetic rats", "format": "in vivo, rat", "method": "Plasma triglycerides (Biosystems, Barcelona, Spain) and NEFAS (Wako Chemicals, Neuss, Germany) were determined with standard calorimetric methods.\nThe concentration of circulating lipids under these conditions was also assayed. […] Untreated diabetic (solid bars, FIG. 9B) or nondiabetic rats (open bars, FIG. 9B) were similarly assayed as controls."}, "[9]": {"tested_on": "protein kinase B", "assay": "protein kinase B phosphorylation in isolated rat adipocytes", "format": "cell-based", "conditions": "25 μM", "experimental": "as §2\nThe mechanism of action of B6V10 was investigated in isolated rat adipocytes. Adipose cells from Wistar rats were incubated for different times in the presence of 25 μM hexaquis(benzylammonium) decavanadate (B6V10). Cells were also incubated in the presence of insulin (100 nM, 45 min), decavanadate (25 μM, 45 min) or semicarbazide (1 mM, 45 min). Subsequently, 2-deoxyglucose uptake (results shown in FIG. 7A), tyrosine phosphorylation of insulin receptor (FIG. 7B), phospho-Thr^308-protein kinase B (FIG. 7C) and phospho-Ser^473-protein kinase B (FIG. 7D) was measured. […] The phosphorylation of protein kinase B induced by B6V10 was parallel to activation of glucose transport (FIGS. 7C and 7D).\nThe effects of incubation with semicarbazide or phosphatidylinositol 3-kinase inhibitors were also investigated. Adipose cells were incubated with B6V10 (25 μM, 45 min) in the absence or presence of wortmannin (2 μM, 45 min), LY294002 (10 μM, 45 min) or semicarbazide (1 mM, 45 min) and thereafter 2-deoxyglucose uptake was determined during 5 min. Activation of protein kinase B phosphorylation induced by B6V10 was blocked by semicarbazide and it was not observed by decavanadate. In addition, phosphatidylinositol 3-kinase inhibitors wortmannin and LY294002 blocked B6V10-induced glucose transport (FIG. 7E)."}, "[10]": {"tested_on": "adipocyte lipolysis", "assay": "adipocyte lipolysis", "format": "cell-based"}, "[11]": {"tested_on": "isolated mouse adipocytes", "assay": "glucose transport (2-DG) in isolated mouse adipocytes", "format": "cell-based", "conditions": "100 μM", "experimental": "Adipose cells from FVB mice were incubated for 45 minutes in basal conditions (Basal) or in the presence of 100 nM insulin (Ins), and different concentrations of hexaquis(benzylammonium) decavanadate (B6V10) in the absence or in the presence of 1 mM semicarbazide (SCZ) and thereafter, 2-DG transport was measured over 5 min."}, "[12]": {"tested_on": "streptozotocin-induced diabetic rats with undetectable circulating insulin", "method": "Male Wistar rats weighting 180-220 g were purchased from Harlan (Interfauna Ibèrica S.A., Spain). Diabetes was induced by a single intraperitoneal injection of a freshly prepared solution of streptozotocin (in some studies the dose was 45 mg/kg body weight and in some others 100 mg/kg body weight dissolved in 50 mM citrate buffer, pH 4.5). Only diabetic animals with glycemia above 300 mg/dl were used. The animals were housed in animal quarters at 22° C. with a 12 h light/12 h dark cycle and were fed ad libitum. All procedures used were approved by the animal ethical committee of the University of Barcelona, Spain.\nOsmotic minipumps delivering B6V10 (2.5 μmol/kg body wt/day) or decavanadate (2.5 μmol/kg body wt/day) were implanted subcutaneously in diabetic rats anaesthetised by ketamine hydrochloride (95 mg/kg) and xylasine (10 mg/kg). […] Glycemia was measured on arterio-venous blood collected from the tail vessels at 09:00 am for two weeks, before the administration of vanadate. Insulin concentrations were determined before and after treatment. In another set of experiments, B6V10 was orally administered at a single dose of 5 μmol/kg/day during the first week and 10 μmol/kg/day during 2 additional weeks by gastric gavage. A control group received the corresponding decavanadate salt in the absence of benzylamine. At the end of the treatment, animals were sacrificed and the liver, fat pad, heart and lung were kept at −80° C. and the plasma at −20° C. until their use for in vitro analysis.\nIn glucose tolerance tests and in chronic treatments, circulating glucose concentrations were determined by a rapid glucose analyser (Accutrend® Sensor Comfort, Roche, Basel. Switzerland). Plasma insulin (IRI) concentration was determined by ELISA method using a kit obtained from Crystal Chem. Inc. (Downers Grove, Ill.).\nTo this end, rats were made diabetic by the injection of a large dose of streptozotocin (100 mg/kg) that eliminates β-pancreatic insulin content."}},
  "note": "“Also recorded” adds a separate entry of the source.",
  "data": [
    {"substance": "hexaquis(benzylammonium) decavanadate [Example B6V10]", "values": [
      {"measurement": "effect on glycemia", "setting": "[1]", "result": "ameliorated glycemia"},
      {"measurement": "plasma insulin levels", "setting": "[2]; acute administration, mice made glucose intolerant by a high fat diet", "result": "improved plasma insulin levels; also recorded: ameliorated the pattern of plasma insulin levels"},
      {"measurement": "glucose tolerance", "setting": "[2]; high-fat fed mice", "result": "amelioration of glucose tolerance"},
      {"measurement": "hypoglycemia", "setting": "[3]", "result": "did not cause hypoglycemia"},
      {"measurement": "toxicological side effects", "setting": "[3]", "result": "did not show toxicological side effects"},
      {"measurement": "tyrosine phosphorylation of insulin receptors", "setting": "[4]", "result": "undetectable"},
      {"measurement": "time of treatment after which reduction of hyperglycemia was detected", "setting": "[5]; 2.5 μmol/kg/day subcutaneous", "result": "four"},
      {"measurement": "effect on glycemia", "setting": "[5]", "result": "significant correction of hyperglycemia; also recorded: significant lowering in blood glucose levels; also recorded: ameliorated hyperglycemia"},
      {"measurement": "effect on glycemia", "setting": "[5]; listed as hexaquis(benzylammonium) decavanadate", "result": "rapid reduction of the hyperglycemia"},
      {"measurement": "day of treatment from which glycemia differed significantly from the untreated group", "setting": "[5]; Bonferroni post-tests, P<0.01, FIG. 8A", "result": 8},
      {"measurement": "effect on glycemia", "setting": "[6]; daily oral administration, 17 days", "result": "significant correction of hyperglycemia; also recorded: significant lowering in blood glucose levels; also recorded: ameliorated hyperglycemia"},
      {"measurement": "time of treatment after which decrease of hyperglycemia was detected", "setting": "[6]; oral 5 μmol/kg/day", "result": "two"},
      {"measurement": "effect on hyperglycemia", "setting": "[6]; oral 5 μmol/kg/day for seven days", "result": "moderate decrease of hyperglycemia"},
      {"measurement": "effect of dosage increase on glycemia", "setting": "[6]; oral 10 μmol/kg/day from day 7 for additional ten days", "result": "additional decrease in glycemia"},
      {"measurement": "glycemia", "setting": "[6]; oral, after dosage increase to 10 μmol/kg/day", "result": "approximately 250 mg/dl"},
      {"measurement": "glucose transport in adipocytes of treated rats under basal conditions", "setting": "[7]", "result": "increased glucose transport under basal conditions equivalent to that seen in the presence of insulin"},
      {"measurement": "plasma concentration of cholesterol", "setting": "[8]", "result": "normalized"},
      {"measurement": "plasma concentration of free fatty acids", "setting": "[8]", "result": "normalized"},
      {"measurement": "plasma concentration of triglycerides", "setting": "[8]", "result": "normalized"},
      {"measurement": "protein kinase B phosphorylation", "setting": "[9]", "result": "rapidly stimulated"},
      {"measurement": "time after addition at which protein kinase B phosphorylation was detectable", "setting": "[9]", "result": 2.5, "unit": "min"},
      {"measurement": "protein kinase B phosphorylation in the presence of semicarbazide", "setting": "[9]; semicarbazide 1 mM, 45 min", "result": "blocked"},
      {"measurement": "adipocyte lipolysis", "setting": "[10]", "result": "inhibited"},
      {"measurement": "stimulation of glucose transport (increase)", "setting": "[11]", "result": 93, "unit": "%"},
      {"measurement": "plasma glucose", "setting": "[12]; after 28 days, 2.5 μmol/kg", "result": "reduced"},
      {"measurement": "plasma insulin", "setting": "[12]; after 28 days, 2.5 μmol/kg", "result": "without any observable change"},
      {"measurement": "body weight or organ weights", "setting": "[12]; rat, in vivo", "result": "did not affect"}
    ]}
  ]
}
